This passage reports IC50 and Inhibitory activity results from ChEMBL document CHEMBL1135213, “New indene-derivatives with anti-proliferative properties” (Bioorg Med Chem Lett, 2002).

Each structure is given as a SMILES string. pIC50: −log10 of the molar value. Active and inactive are the calls of the source. The calls are words filed in the database; no cut-off is given here.

The test system of assay [1] is MDCK. Nature of the assay: Anti-proliferative activity was evaluated by its ability to inhibit proliferation of MDCK cells. The assay is classed as functional, cell-based, Canis lupus familiaris.
Assay [2] relates to SW480. The assay can be described thus: Anti-proliferative activity was evaluated by its ability to inhibit proliferation of SW480 cells. The class given is functional, cell-based, Homo sapiens.
Assay [3] relates to REF. Nature of the assay: Anti-proliferative activity was evaluated by its ability to inhibit proliferation of rat embryonic fibroblasts (REF). The assay is classed as functional, cell-based.
The test system of assay [4] is NIH3T3. Nature of the assay: Anti-proliferative activity was evaluated by its ability to inhibit proliferation of murine NIH3T3 fibroblasts. The class given is functional, cell-based, Mus musculus.
Assay [5] concerns MDCK. The assay can be described thus: Anti-proliferative activity was evaluated by its ability to inhibit proliferation of MDCK-f3 (Madin-Darby canine kidney f3) cell line. The class given is functional, cell-based, Canis lupus familiaris.
Assay [6] concerns NIH3T3. The assay can be described thus: Anti-proliferative activity was evaluated by its ability to inhibit proliferation of murine NIH3T3 fibroblasts; na means Not active. The class given is functional, cell-based, Mus musculus.
In assay [7] the test system is REF. The assay can be described thus: Anti-proliferative activity was evaluated by its ability to inhibit proliferation of rat embryonic fibroblasts (REF); na means Not active. The class given is functional, cell-based.
Assay [8] concerns MDCK. Nature of the assay: Anti-proliferative activity was evaluated by its ability to inhibit proliferation of MDCK cells; na means Not active. The assay is classed as functional, cell-based, Canis lupus familiaris.
Assay [9] has as its system MDCK. Nature of the assay: Anti-proliferative activity was evaluated by its ability to inhibit proliferation of MDCK-f3 (Madin-Darby canine kidney f3) cell line; na means Not active. The assay is classed as functional, cell-based, Canis lupus familiaris.
Assay [10] has as its system SW480. Nature of the assay: Anti-proliferative activity was evaluated by its ability to inhibit proliferation of SW480 cells; na means Not active. The assay is classed as functional, cell-based, Homo sapiens.
Assay [11] is described as follows: Inhibition of p21ras protein and Raf kinase in vitro using recombinant proteins. Details: unit not given here.
In assay [12] the target is T1, Cyclooxygenase (Homo sapiens) (UniProt P35354+P23219). The note with it: Ovis aries.
Assay [13] is described as follows: Inhibition of p21ras protein and Raf kinase in vitro using recombinant proteins (inactive).
The target in assay [14] is T1, Cyclooxygenase (Homo sapiens). The assay can be described thus: Half-maximal inhibition of the COX activity was measured by the direct analysis of the consumed O2 using isolated sheep seminal vesicles; na means Not active. The assay is classed as functional. The note with it: Ovis aries; target entry is the homologue from another species.

`COc1cccc(C=C2C(C)=C(CC(=O)O)c3cc(F)ccc32)c1`: the pIC50 in assay [1] (Canis lupus familiaris, MDCK) was 3.56; in [2] (Homo sapiens, SW480) it was 3.44; in assay [3] (Rattus norvegicus, REF), 3.70; in [4] (Mus musculus, NIH3T3) it was 3.28; in assay [5] (Canis lupus familiaris, MDCK), 3.52.

With `COc1ccccc1C=C1C(C)=C(CC(=O)O)c2cc(F)ccc21`, the pIC50 in assay [2] (Homo sapiens, SW480) is 3.07; in assay [3] (Rattus norvegicus, REF), 3.70; in assay [4] (Mus musculus, NIH3T3) it was 3.30; in assay [5] (Canis lupus familiaris, MDCK), 3.44.

Consider `CC1=C(CC(=O)O)c2cc(F)ccc2C1=Cc1ccc(S(=O)(=O)O)o1`, for which the IC50 entry in assay [6], in [7], in [8], in assay [9] and in assay [10] was “Not Active” in each case.

Regarding `CC1=C(CC(=O)O)c2cc(F)ccc2C1=Cc1ccc(CO)o1` [listing 1 of 3 here], the Inhibitory activity in [11] was 45; in [12] it was 570.

With `CC1=C(CC(=O)O)c2cc(F)ccc2C1=Cc1ccc(CO)o1` [listing 2 of 3 here], the pIC50 in assay [1] (mdck) was 3.60; in assay [2] (sw480) it was 3.51; in assay [3] (Rattus norvegicus, REF), 4.05; in [4] (Mus musculus, NIH3T3), 3.35; in assay [5] (Canis lupus familiaris, MDCK), 3.89.

As to `CC1=C(CC(=O)O)c2cc(F)ccc2C1=Cc1ccoc1`, the pIC50 in [1] (Canis lupus familiaris, MDCK) is 3.52; in [2] (Homo sapiens, SW480), 3.40; in assay [3] (Rattus norvegicus, REF) it was 4.52; in assay [4] (Mus musculus, NIH3T3), 3.77; in [5] (Canis lupus familiaris, MDCK), 4.30. Further, the results for the Inhibitory activity in [11] and in assay [12] were 30 and 0.24, respectively.

Consider `CC1=C(CC(=O)O)c2cc(F)ccc2C1=Cc1cccs1`, for which the pIC50 was 3.33 in [1] (Canis lupus familiaris, MDCK); 3.49 in assay [2] (Homo sapiens, SW480); 4.00 in assay [3] (Rattus norvegicus, REF); 3.40 in [4] (Mus musculus, NIH3T3); 4.10 in assay [5] (Canis lupus familiaris, MDCK). Besides, the Inhibitory activity entry in [13] is “inactive”. For the same compound, in assay [12], the Inhibitory activity came out at 0.03.

In the case of `CC1=C(CC(=O)O)c2cc(F)ccc2C1=Cc1ccc(C)o1` [listing 1 of 2 here], the pIC50 in [1] (mdck) was 4.22; in assay [2] (sw480) it was 4.10; in assay [3] (ref), 5.00; in assay [4] (nih3t3) it was 4.22; in assay [5] (mdck) it was 4.22.

Turning to `CC1=C(CC(=O)O)c2cc(F)ccc2C1=Cc1ccc([S+](C)[O-])cc1` (stereo unspecified) [SULINDAC], the pIC50 in assay [1] (Canis lupus familiaris, MDCK) was 3.52; in [2] (Homo sapiens, SW480), 3.10; in assay [3] (Rattus norvegicus, REF) it was 4.00; in assay [4] (Mus musculus, NIH3T3), 3.70; in assay [5] (Canis lupus familiaris, MDCK), 3.49. The Inhibitory activity entry in assay [13] and in assay [14] was “inactive” in each case.

For `CC1=C(CC(=O)O)c2cc(F)ccc2C1=Cc1ccc(CO)o1` [listing 3 of 3 here], the pIC50 in assay [1] (mdck) is 4.30; in [2] (sw480), 4.15; in assay [3] (ref) it was 4.10; in assay [4] (nih3t3) it was 3.31; in assay [5] (mdck), 3.92.

Turning to `CSc1ccc(/C=C2/C(C)=C(CC(=O)O)c3cc(F)ccc32)cc1` [SULINDAC SULFIDE], the pIC50 is 3.74 in [1] (Canis lupus familiaris, MDCK); 3.70 in assay [2] (Homo sapiens, SW480); 3.70 in assay [3] (Rattus norvegicus, REF); 3.46 in [4] (Mus musculus, NIH3T3); 3.70 in [5] (Canis lupus familiaris, MDCK). For the same compound, the Inhibitory activity in assay [11] was determined as 210; in assay [12], 2.6.

As to `COc1ccc(C=C2C(C)=C(CC(=O)O)c3cc(F)ccc32)cc1`, the pIC50 in assay [1] (Canis lupus familiaris, MDCK) was 3.34; in assay [3] (Rattus norvegicus, REF), 3.30; in assay [4] (Mus musculus, NIH3T3), 3.32; in assay [5] (Canis lupus familiaris, MDCK), 3.51. For the same compound, the Inhibitory activity came to 10 in assay [11] and 1.6 in assay [12]. Moreover, the IC50 result in assay [10] is reported as “Not Active”.

Take `CC1=C(CC(=O)O)c2cc(F)ccc2C1=Cc1ccc(C)o1` [listing 2 of 2 here]: the pIC50 in [1] (mdck) was 3.60; in assay [2] (sw480), 3.42; in [3] (Rattus norvegicus, REF), 4.70; in assay [4] (Mus musculus, NIH3T3) it was 4.00; in [5] (mdck), 3.51.

As usually defined, the pIC50 is the IC50 on a negative log10 scale, so that one unit is a factor of ten.
